Patent US9499550B2 (BRISTOL-MYERS SQUIBB COMPANY, priority 2012, dated 2016)
Where two headings read alike, the source gives them in different places.

Assays:
[1] = system: HCV genotype 1b (Con1) replicon in HUH-7 cells; assay: HCV replicon luciferase reporter assay, genotype 1b; assay type: cell-based; conditions: Hepatitis C virus, Huh-7, 72 h, 3 days incubation, read-out: LE_1b (EC50, range)
Outline: (§1)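 Replicon inhibition for both genotypes was measured as Renilla luciferase signal (EnduRen, 7.5 μM final, 2 h) after 3-day, 37° C exposure of replicon-bearing HUH-7 cells in 4% FCS DMEM, 0.5% DMSO. The 1b construct carries S1179I; the 1a H77 construct carries P1496L and S2204I. Twenty-point, 3-fold dilutions were fitted four-parametrically for EC50, and CC50 was taken from multiplexed Cell Titer-Blue.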

[2] = system: HCV genotype 1a (H77 strain) replicon in HUH-7 cells; assay: HCV replicon luciferase reporter assay, genotype 1a; assay type: cell-based; conditions: Hepatitis C virus, Huh-7, 72 h, 3 days incubation, read-out: LE_1a (EC50, range)
Outline: as §1

[3] = HCV genotype 1b replicon luciferase assay, range class
[4] = HCV genotype 1a replicon luciferase assay, range class
[5] = GETYPE1B, HCV genotype 1b replicon luciferase
[6] = GETYPE1A, HCV genotype 1a replicon luciferase

COCCOc1cnc(O[C@@H]2C[C@H]3C(=O)N[C@]4(C(=O)NS(=O)(=O)C5(C)CC5)C[C@H]4/C=C\CC[C@@H](C)C[C@@H](C)[C@H](NC(=O)OC(C)(C)C)C(=O)N3C2)c2ccc(OC)cc12 [Compound 1153, tert-butyl ((2R,6S,7R,9R,13aS,14aR,16aS,Z)-2-((6-methoxy-4-(2-methoxyethoxyl)isoquinolin-1-yl)oxy)-7,9-dimethyl-14a-(((1-methylcyclopropyl)sulfonyl)carbamoyl)-5,16-dioxo-1,2,3,5,6,7,8,9,10,11,13a,14,14a,15,16,16a-hexadecahydrocyclopropa[e]pyrrolo[1,2-a][1,4]diazacyclopentadecin-6-yl)carbamate]
EC50 [1, 3]: < 5.46 nM | EC50 [2, 4]: < 5.46 nM

C[C@@H]1CC/C=C\[C@@H]2C[C@@]2(C(=O)NS(=O)(=O)C2CC2)NC(=O)[C@@H]2C[C@@H](Oc3ncc(OCC(F)F)c4ccccc34)CN2C(=O)[C@@H](NC(=O)OC(C)(C)C(F)(F)F)[C@H](C)C1 [Compound 1032, 1,1,1-trifluoro-2-methylpropan-2-yl((2R,6S,7R,9R,13aS,14aR,16aS,Z)-14a-((cyclopropylsulfonyl)carbamoyl)-2-((4-(2,2-difluoroethoxyl)isoquinolin-1-yl)oxy)-7,9-dimethyl-5,16-dioxo-1,2,3,5,6,7,8,9,10,11,13a,14,14a,15,16,16a-hexadecahydrocyclopropa[e]pyrrolo[1,2-a][1,4]diazacyclopentadecin-6-yl)carbamate]
EC50 [1, 3]: < 5.46 nM | EC50 [2, 4]: < 5.46 nM

COc1cc(F)cc2c(O[C@@H]3C[C@H]4C(=O)N[C@]5(C(=O)NS(=O)(=O)C6(CF)CC6)C[C@H]5/C=C\CC[C@H](C)C[C@@H](C)[C@H](NC(=O)OC(C)(C)C(F)(F)F)C(=O)N4C3)nccc12 [Compound 3175, 1,1,1-trifluoro-2-methylpropan-2-yl((2R,6S,7R,9S,13aS,14aR,16aS,Z)-2-((7-fluoro-5-methoxyisoquinolin-1-yl)oxy)-14a-(((1-(fluoromethyl)cyclopropyl)sulfonyl)carbamoyl)-7,9-dimethyl-5,16-dioxo-1,2,3,5,6,7,8,9,10,11,13a,14,14a,15,16,16a-hexadecahydrocyclopropa[e]pyrrolo[1,2-a][1,4]diazacyclopentadecin-6-yl)carbamate]
EC50 [1, 3]: 4.82 to 103 nM | EC50 [2, 4]: 4.82 to 103 nM

COc1ccc2c(O[C@@H]3C[C@H]4C(=O)N[C@]5(C(=O)NS(=O)(=O)C6CC6)C[C@H]5/C=C\CC[C@H](C)C[C@@H](C)[C@H](NC(=O)OC(C)(C)C)C(=O)N4C3)nc(-c3ccc(OC(C)C)cc3)nc2c1 [Compound 3016, tert-butyl ((2R,6S,7R,9S,13aS,14aR,16aS,Z)-14a-((cyclopropylsulfonyl)carbamoyl)-2-((2-(4-isopropoxyphenyl)-7-methoxyquinazolin-4-yl)oxy)-7,9-dimethyl-5,16-dioxo-1,2,3,5,6,7,8,9,10,11,13a,14,14a,15,16,16a-hexadecahydrocyclopropa[e]pyrrolo[1,2-a][1,4]diazacyclopentadecin-6-yl)carbamate]
EC50 [1, 3]: < 5.46 nM | EC50 [2, 4]: < 5.46 nM

C[C@@H]1CC/C=C\[C@@H]2C[C@@]2(C(=O)NS(=O)(=O)C2CC2)NC(=O)[C@@H]2C[C@@H](Oc3nccc4c5c(ccc34)OCCO5)CN2C(=O)[C@@H](NC(=O)OC(C)(C)C(F)(F)F)[C@H](C)C1 [Compound 5259, 1,1,1-trifluoro-2-methylpropan-2-yl((2R,6S,7R,9R,13aS,14aR,16aS,Z)-14a-((cyclopropylsulfonyl)carbamoyl)-2-((2,3-dihydro-[1,4]dioxino[2,3-f]isoquinolin-7-yl)oxy)-7,9-dimethyl-5,16-dioxo-1,2,3,5,6,7,8,9,10,11,13a,14,14a,15,16,16a-hexadecahydrocyclopropa[e]pyrrolo[1,2-a][1,4]diazacyclopentadecin-6-yl)carbamate]
EC50 ([1]; HCV genotype 1b replicon luciferase): < 5.46 nM | EC50 ([2]; HCV genotype 1a replicon luciferase): < 5.46 nM

COc1ccc2c(O[C@@H]3C[C@H]4C(=O)N[C@]5(C(=O)NS(=O)(=O)C6(CF)CC6)C[C@H]5/C=C\CC[C@@H](C)C[C@@H](C)[C@H](NC(=O)O[C@@]5(C(F)(F)F)CCCOC5)C(=O)N4C3)nc(-c3ccc(OC(C)C)cc3)cc2c1 [Compound 1183]
EC50 [1, 5]: 1.01 to 5 nM | EC50 [2, 6]: 1.01 to 5 nM

COc1ccc2c(O[C@@H]3C[C@H]4C(=O)N[C@]5(C(=O)NS(=O)(=O)C6(CF)CC6)C[C@H]5/C=C\CC[C@H](C)C[C@@H](C)[C@H](NC(=O)OC(C)(C)C)C(=O)N4C3)nc(Cl)cc2c1 [Compound 1162, tert-butyl ((2R,6S,7R,9S,13aS,14aR,16aS,Z)-2-((3-chloro-6-methoxyisoquinolin-1-yl)oxy)-14a-(((1-(fluoromethyl)cyclopropyl)sulfonyl)carbamoyl)-7,9-dimethyl-5,16-dioxo-1,2,3,5,6,7,8,9,10,11,13a,14,14a,15,16,16a-hexadecahydrocyclopropa[e]pyrrolo[1,2-a][1,4]diazacyclopentadecin-6-yl)carbamate]
EC50 [1, 3]: 4.82 to 103 nM | EC50 [2, 4]: 4.82 to 103 nM

CCOc1cnc(O[C@@H]2C[C@H]3C(=O)N[C@]4(C(=O)NS(=O)(=O)C5(CF)CC5)C[C@H]4/C=C\CC[C@@H](C)C[C@@H](C)[C@H](NC(=O)OC(C)(C)C(F)(F)F)C(=O)N3C2)c2ccc(OC)cc12 [Compound 4104]
EC50 [1, 5]: < 5.46 nM | EC50 [2, 6]: < 5.46 nM

COc1cnc(O[C@@H]2C[C@H]3C(=O)N[C@]4(C(=O)NS(=O)(=O)C5(C)CC5)C[C@H]4/C=C\CC[C@@H](C)C[C@@H](C)[C@H](NC(=O)OC(C)(C)C(F)(F)F)C(=O)N3C2)c2cc(F)ccc12 [Compound 4060]
EC50 [1, 5]: < 5.46 nM | EC50 [2, 6]: < 5.46 nM

COc1ccc2c(O[C@@H]3C[C@H]4C(=O)N[C@]5(C(=O)NS(=O)(=O)C6(C)CC6)C[C@H]5/C=C\CC[C@@H](C)C[C@@H](C)[C@H](NC(=O)O[C@@H]5C[C@@H]6C[C@@H]6C5)C(=O)N4C3)nc(N3CCOCC3)cc2c1 [Compound 3097, (1R,3r,5S)-bicyclo[3.1.0]hexan-3-yl((2R,6S,7R,9R,13aS,14aR,16aS,Z)-2-((6-methoxy-3-morpholinoisoquinolin-1-yl)oxy)-7,9-dimethyl-14a-(((1-methylcyclopropyl)sulfonyl)carbamoyl)-5,16-dioxo-1,2,3,5,6,7,8,9,10,11,13a,14,14a,15,16,16a-hexadecahydrocyclopropa[e]pyrrolo[1,2-a][1,4]diazacyclopentadecin-6-yl)carbamate]
EC50 [1, 3]: < 5.46 nM | EC50 [2, 4]: < 5.46 nM

COc1ccc2c(O[C@@H]3C[C@H]4C(=O)N[C@]5(C(=O)NS(=O)(=O)C6(CF)CC6)C[C@H]5/C=C\CC[C@H](C)C[C@@H](C)[C@H](NC(=O)OC(C)(C)C(C)(F)F)C(=O)N4C3)nc(C(F)(F)F)cc2c1 [Compound 1170, 3,3-difluoro-2-methylbutan-2-yl((2R,6S,7R,9S,13aS,14aR,16aS,Z)-14a-(((1-(fluoromethyl)cyclopropyl)sulfonyl)carbamoyl)-2-((6-methoxy-3-(trifluoromethyl)isoquinolin-1-yl)oxy)-7,9-dimethyl-5,16-dioxo-1,2,3,5,6,7,8,9,10,11,13a,14,14a,15,16,16a-hexadecahydrocyclopropa[e]pyrrolo[1,2-a][1,4]diazacyclopentadecin-6-yl)carbamate]
EC50 [1, 3]: 4.82 to 103 nM | EC50 [2, 4]: 4.82 to 103 nM

COc1cc2ccnc(O[C@@H]3C[C@H]4C(=O)N[C@]5(C(=O)NS(=O)(=O)C6(F)CC6)C[C@H]5/C=C\CC[C@@H](C)C[C@@H](C)[C@H](NC(=O)OC(C)(C)C(F)(F)F)C(=O)N4C3)c2cc1Cl [Compound 4043]
EC50 [1, 5]: < 5.46 nM | EC50 [2, 6]: < 5.46 nM

COc1cnc(O[C@@H]2C[C@H]3C(=O)N[C@]4(C(=O)NS(=O)(=O)C5(CF)CC5)C[C@H]4/C=C\CC[C@H](C)C[C@@H](C)[C@H](NC(=O)OC4(C)CCOCC4)C(=O)N3C2)c2ccccc12 [Compound 1051, 4-methyltetrahydro-2H-pyran-4-yl((2R,6S,7R,9S,13aS,14aR,16aS,Z)-14a-(((1-(fluoromethyl)cyclopropyl)sulfonyl)carbamoyl)-2-((4-methoxyisoquinolin-1-yl)oxy)-7,9-dimethyl-5,16-dioxo-1,2,3,5,6,7,8,9,10,11,13a,14,14a,15,16,16a-hexadecahydrocyclopropa[e]pyrrolo[1,2-a][1,4]diazacyclopentadecin-6-yl)carbamate]
EC50 [1, 3]: 4.82 to 103 nM | EC50 [2, 4]: 4.82 to 103 nM

CC[C@@H]1C[C@H](C)CC/C=C\[C@@H]2C[C@@]2(C(=O)NS(=O)(=O)C2(C)CC2)NC(=O)[C@@H]2C[C@@H](Oc3nccc4c(OC)cccc34)CN2C(=O)[C@H]1NC(=O)OC(C)(C)C [Compound 3024, tert-butyl ((2R,6S,7R,9R,13aS,14aR,16aS,Z)-7-ethyl-2-((5-methoxyisoquinolin-1-yl)oxy)-9-methyl-14a-(((1-methylcyclopropyl)sulfonyl)carbamoyl)-5,16-dioxo-1,2,3,5,6,7,8,9,10,11,13a,14,14a,15,16,16a-hexadecahydrocyclopropa[e]pyrrolo[1,2-a][1,4]diazacyclopentadecin-6-yl)carbamate]
EC50 [1, 3]: < 5.46 nM | EC50 [2, 4]: < 5.46 nM
